“Also recorded” adds a separate entry of the source.
How the values were obtained:
[1] = test system: Arabidopsis thaliana seedlings; test: Arabidopsis root growth inhibition in growth media; format: in vivo; conditions: for relative toxicity of the D, L and DL forms: Arabidopsis thaliana seedlings
[2] = test system: lettuce seedlings (Lactuca sativa L.); test: Petri-dish bioassay, radicle elongation in lettuce seedlings; format: in vivo; conditions: lettuce seedlings

Row | Structure (SMILES) | toxicity of the three forms at 40 μM [1] | relative toxicity of the D, L and DL forms [1] | further results
1 | N[C@H](Cc1cccc(O)c1)C(=O)O [D-m-tyrosine] | same level of toxicity | less toxic at low concentrations | –
2 | NC(Cc1cccc(O)c1)C(=O)O (stereo not drawn) [DL m-tyrosine] | same level of toxicity | roughly equal toxicity | –
3 | N[C@@H](Cc1cccc(O)c1)C(=O)O [L-m-tyrosine, L-3′-hydroxyphenylalanine] | same level of toxicity | roughly equal toxicity | –
4 | O=C(O)C(=O)Cc1cccc(O)c1 [m-hydroxyphenylpyruvic acid] | – | – | toxicity compared with m-tyrosine ([1]; Arabidopsis root growth): as toxic as m-tyrosine; root growth of Arabidopsis when phenylalanine is added to the media ([1]; in vivo): not rescued
5 | N[C@@H](Cc1ccccc1O)C(=O)O [o-tyrosine, 2′-hydroxyphenylalanine] | – | – | phytotoxicity [2]: no toxicity; also recorded: not phytotoxic; also recorded: devoid of herbicidal activity
6 | N[C@@H](Cc1ccc(O)cc1)C(=O)O [p-tyrosine, tyrosine] | – | – | rescue of root growth inhibition initiated by 3 μM of m-tyrosine ([1]; concentrations up to 1 mM): did not rescue; phytotoxicity [2]: no toxicity; also recorded: not phytotoxic
7 | N[C@@H](Cc1ccccc1)C(=O)O [phenylalanine, reference compound] | – | – | root growth restored by addition of phenylalanine ([1]; root growth inhibition initiated by m-tyrosine): 80 % of the control levels
